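Interpolation was linear, between the two tested concentrations surrounding the appropriate level; five concentrations were tested over 48 hours in 96-well plates. GI50: concentration for 50% inhibition of growth.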 Calls of active or inactive are those of the source. No stated cut-off is given here; in the data, active = GI50 up to about 1.1 µM and inactive = higher.
How the values were obtained:
Assay in all cases: NCI anticancer screen, dose series, 48 h
[1] = tested on: 786-0
[2] = tested on: CAKI-1
[3] = tested on: COLO 205
[4] = tested on: HCC 2998
[5] = tested on: HCT-15
[6] = tested on: HL-60
[7] = tested on: HOP-92
[8] = tested on: HT-29
[9] = tested on: IGROV-1
[10] = tested on: LOX IMVI
[11] = tested on: LXFL 529
[12] = tested on: MOLT-4
[13] = tested on: NCI-H226
[14] = tested on: RXF 393
[15] = tested on: TK-10
[16] = tested on: UACC-62
[17] = tested on: DU-145
[18] = tested on: MDA-N
[19] = tested on: NCI/ADR-RES

Row | Structure (SMILES) | GI50 [1] | GI50 [2] | GI50 [3] | GI50 [4] | GI50 [5] [µM] | GI50 [6] | GI50 [7] | GI50 [8] | GI50 [9] | GI50 [10] | GI50 [11] | GI50 [12] | GI50 [13] | GI50 [14] | GI50 [15] | GI50 [16] | GI50 [17] | GI50 [18] | GI50 [19]
1 | COc1ccc2c(c1)Cc1c-2[nH]c2cc3c(cc2c1=O)OCO3 | 20.2 µM (inactive) | 32.1 µM (inactive) | 12 µM (inactive) | 11.6 µM (inactive) | 9.91 | 6.12 µM (inactive) | 17.7 µM (inactive) | 6.44 µM (inactive) | 16.9 µM (inactive) | 14.5 µM (inactive) | 19.5 µM (inactive) | 8.81 µM (inactive) | 29.9 µM (inactive) | 4.01 µM (inactive) | 9.31 µM (inactive) | 10.4 µM (inactive) |  |  | 
2 | CN(C)CCNC(=O)c1cccc2c(Nc3ccc(S(N)(=O)=O)cc3)c3ccccc3nc12 | 1.09 µM (active) | 3.25 µM (inactive) | 0.391 µM (active) | 1.71 µM (inactive) | 1.83 | 0.228 µM (active) | 1.32 µM (inactive) | 1.26 µM (inactive) | 2.18 µM (inactive) | 0.531 µM (active) | 0.333 µM (active) | 0.0632 µM (active) | 1.05 µM (active) |  | 1.97 µM (inactive) | 1.42 µM (inactive) |  |  | 
3 | CN1CCN(c2nc(N)c(Br)c(Cl)n2)CC1 | > 100 µM (inactive) | > 100 µM (inactive) | > 100 µM (inactive) | > 100 µM (inactive) | > 100 | > 100 µM (inactive) | 54.3 µM (inactive) |  | > 100 µM (inactive) | > 100 µM (inactive) | > 100 µM (inactive) | > 100 µM (inactive) |  | > 100 µM (inactive) | > 100 µM (inactive) | > 100 µM (inactive) |  |  | 
4 | CCCC(=O)Nc1ccc(O)c2c1C1CCCCCC21 (stereo not drawn) | > 100 µM (inactive) |  | > 100 µM (inactive) |  | 74 | > 100 µM (inactive) |  | > 100 µM (inactive) |  | > 100 µM (inactive) | > 100 µM (inactive) | 56.9 µM (inactive) | > 100 µM (inactive) | 39.1 µM (inactive) | > 100 µM (inactive) | 64 µM (inactive) |  |  | 
5 | [O-]c1c2c(nn1-c1ccccc1)c1ccccc1c[n+]2Cc1ccccc1 | > 100 µM (inactive) |  | > 100 µM (inactive) | > 100 µM (inactive) | > 100 | > 100 µM (inactive) | > 100 µM (inactive) | > 100 µM (inactive) | > 100 µM (inactive) | > 100 µM (inactive) | > 100 µM (inactive) | > 100 µM (inactive) | > 100 µM (inactive) | 0.13 µM (active) | > 100 µM (inactive) | > 100 µM (inactive) |  |  | 
6 | Cc1ccc(NC(=O)CCc2cc(C(C)(C)C)nc(S)n2)cc1C | > 100 µM (inactive) | > 100 µM (inactive) | > 100 µM (inactive) | > 100 µM (inactive) | > 100 | > 100 µM (inactive) | > 100 µM (inactive) | > 100 µM (inactive) | > 100 µM (inactive) | > 100 µM (inactive) | > 100 µM (inactive) | > 100 µM (inactive) | > 100 µM (inactive) | > 100 µM (inactive) | > 100 µM (inactive) | > 100 µM (inactive) |  |  | 
7 | CCCCCCCCCCCCCCCCCC(CCCCCCCCCCCCCCCCC)OP(=O)(O)O | > 100 µM (inactive) | > 100 µM (inactive) | > 100 µM (inactive) | > 100 µM (inactive) | > 100 | > 100 µM (inactive) | > 100 µM (inactive) | > 100 µM (inactive) | > 100 µM (inactive) | > 100 µM (inactive) | > 100 µM (inactive) | > 100 µM (inactive) | > 100 µM (inactive) | > 100 µM (inactive) | > 100 µM (inactive) | > 100 µM (inactive) |  |  | 
8 | COC(=O)c1cc2ccccc2c2nc3ccccc3c(Cl)c12 | > 100 µM (inactive) | > 100 µM (inactive) | > 100 µM (inactive) | > 100 µM (inactive) | > 100 | > 100 µM (inactive) | > 100 µM (inactive) | > 100 µM (inactive) | > 100 µM (inactive) | > 100 µM (inactive) | > 100 µM (inactive) | > 100 µM (inactive) |  | > 100 µM (inactive) | > 100 µM (inactive) | > 100 µM (inactive) |  |  | 
9 | CC1=CC[C@@H](C(C)(C)O)C[C@@H]1O | > 5000 µM (inactive) |  | > 5000 µM (inactive) | > 5000 µM (inactive) | > 5000 | 3940 µM (inactive) | > 5000 µM (inactive) | > 5000 µM (inactive) | > 5000 µM (inactive) | > 5000 µM (inactive) | > 5000 µM (inactive) | > 5000 µM (inactive) | > 5000 µM (inactive) | > 5000 µM (inactive) | > 5000 µM (inactive) | > 5000 µM (inactive) |  |  | 
10 | Cc1ccc2c(c1)c(=O)c1c(NCCN(C)C)ccc3nnn2c31 | 3.35 µM (inactive) | 2.02 µM (inactive) | 1.9 µM (inactive) | 3.4 µM (inactive) | 4.18 | 2.1 µM (inactive) | 2.36 µM (inactive) | 1.47 µM (inactive) | 4.33 µM (inactive) | 1.9 µM (inactive) | 3.48 µM (inactive) | 0.605 µM (active) | 3.02 µM (inactive) | 2.88 µM (inactive) | 3.95 µM (inactive) | 6.44 µM (inactive) |  |  | 
11 | C=CCSC[C@H](NC(=O)COc1ccccc1)C(=O)NC(C(=O)OCc1ccc([N+](=O)[O-])cc1)=C(C)C | > 100 µM (inactive) |  | 20.6 µM (inactive) | > 100 µM (inactive) | 65.5 | 23.3 µM (inactive) |  | 39.1 µM (inactive) | > 100 µM (inactive) | 64.9 µM (inactive) | 36.1 µM (inactive) | 19.8 µM (inactive) | 28.6 µM (inactive) | 49.7 µM (inactive) |  | 72.6 µM (inactive) |  |  | 
12 | CC(=O)Nc1ccc(C(=O)NN2C(=O)C(Cl)C2c2ccccc2)cc1 (stereo not drawn) | > 100 µM (inactive) | > 100 µM (inactive) | > 100 µM (inactive) |  |  | > 100 µM (inactive) | > 100 µM (inactive) | > 100 µM (inactive) | > 100 µM (inactive) | > 100 µM (inactive) | > 100 µM (inactive) | > 100 µM (inactive) | > 100 µM (inactive) | > 100 µM (inactive) | > 100 µM (inactive) | > 100 µM (inactive) |  |  | 
13 | CC(O)CCCOC(c1ccccc1)(c1ccccc1)c1ccccc1 (stereo not drawn) | 16.5 µM (inactive) | 16 µM (inactive) | 20.1 µM (inactive) | 15.3 µM (inactive) | 15.4 | 17.6 µM (inactive) | 12.6 µM (inactive) | 13.2 µM (inactive) | 15.7 µM (inactive) | 15.2 µM (inactive) | 14.7 µM (inactive) | 16.6 µM (inactive) | 16.1 µM (inactive) | 14.7 µM (inactive) | 16.6 µM (inactive) | 13.9 µM (inactive) | 16.6 µM (inactive) | 16.8 µM (inactive) | 11.7 µM (inactive)
14 | C[N+]1(CCNP(=S)(NCC[N+]2(C)Cc3c(ccc4c3OCO4)C3C2c2cc4c(cc2C[C@@H]3O)OCO4)NCC[N+]2(C)Cc3c(ccc4c3OCO4)C3C2c2cc4c(cc2C[C@@H]3O)OCO4)Cc2c(ccc3c2OCO3)C2C1c1cc3c(cc1C[C@H]2O)OCO3 (stereo partly drawn) | < 0.00191 µM (active) | 13.2 µM (inactive) | < 0.00191 µM (active) | < 0.00191 µM (active) | < 0.00191 | < 0.00191 µM (active) | < 0.00191 µM (active) | < 0.00191 µM (active) | < 0.00191 µM (active) | < 0.00191 µM (active) | < 0.00191 µM (active) |  | 2.42 µM (inactive) | < 0.00191 µM (active) | < 0.00191 µM (active) | < 0.00191 µM (active) |  |  | 
15 | CCC(C)(O)c1cn(-c2ccc(S(=O)(=O)O)cc2)nn1 (stereo not drawn) | > 100 µM (inactive) | > 100 µM (inactive) | > 100 µM (inactive) | > 100 µM (inactive) | > 100 | > 100 µM (inactive) | > 100 µM (inactive) | > 100 µM (inactive) | > 100 µM (inactive) | > 100 µM (inactive) | > 100 µM (inactive) | > 100 µM (inactive) | > 100 µM (inactive) | > 100 µM (inactive) | > 100 µM (inactive) | > 100 µM (inactive) |  |  | 
16 | CC(N)Cc1cccc(C(F)(F)F)c1 (stereo not drawn) | > 100 µM (inactive) | > 100 µM (inactive) | > 100 µM (inactive) | > 100 µM (inactive) | > 100 | > 100 µM (inactive) | > 100 µM (inactive) | > 100 µM (inactive) | > 100 µM (inactive) | > 100 µM (inactive) | > 100 µM (inactive) |  | > 100 µM (inactive) | > 100 µM (inactive) | > 100 µM (inactive) | > 100 µM (inactive) |  |  | 
17 | CC(=O)C1=C(O)C2C3c4c[nH]c5cccc(c45)CC3C(C)(C)N2C1=O (stereo not drawn) | 19.3 µM (inactive) | > 100 µM (inactive) | > 100 µM (inactive) | 23.1 µM (inactive) | 34.6 | 3.05 µM (inactive) | > 100 µM (inactive) | 34.4 µM (inactive) | > 100 µM (inactive) | 16.2 µM (inactive) | 78.3 µM (inactive) | 15.6 µM (inactive) | 17.3 µM (inactive) |  | 46.5 µM (inactive) | 44.1 µM (inactive) |  |  | 
18 | COc1cc2c(c(OC)c1OC)-c1ccc(SC)c(=O)cc1[C@@H](NCc1ccc(F)cc1)CC2 | < 0.0075 µM (active) | 1.69 µM (inactive) | < 0.0075 µM (active) | < 0.0075 µM (active) | < 0.0075 | 0.1 µM (active) | < 0.0075 µM (active) | < 0.0075 µM (active) | < 0.0075 µM (active) | < 0.0075 µM (active) | < 0.0075 µM (active) | < 0.0075 µM (active) | < 0.0075 µM (active) | < 0.0075 µM (active) | 12.3 µM (inactive) | < 0.0075 µM (active) |  |  | 
